In patent US8653096B2, “Chemokine receptor antagonists and methods of use thereof” (Millennium Pharmaceuticals, Inc., priority 2001, dated 2014):

Target: T1, RANTES/MIP-1α chemokine receptor (CCR1) in THP-1 cell membranes (Homo sapiens, UniProt P32246)
T1 construct: Membranes were prepared from THP-1 cells (ATCC #TIB202); host or cells: THP-1 cells (membrane preparation)
T1 sequence (P32246 1-355): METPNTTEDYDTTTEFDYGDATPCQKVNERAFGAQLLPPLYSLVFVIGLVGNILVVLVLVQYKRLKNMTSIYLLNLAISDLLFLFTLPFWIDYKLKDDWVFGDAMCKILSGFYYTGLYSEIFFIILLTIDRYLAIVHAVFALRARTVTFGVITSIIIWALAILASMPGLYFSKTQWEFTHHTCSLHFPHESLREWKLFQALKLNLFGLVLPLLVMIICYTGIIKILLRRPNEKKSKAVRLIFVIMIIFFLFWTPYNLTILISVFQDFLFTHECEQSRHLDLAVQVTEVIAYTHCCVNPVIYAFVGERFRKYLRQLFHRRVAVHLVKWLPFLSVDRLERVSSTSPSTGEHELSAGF
Assay: Receptor binding assay: 125I-RANTES or 125I-MIP-1α binding to THP-1 cell membranes
Settings: inhibitor concentration required for 50% inhibition of specific binding; 125I-RANTES or 125I-MIP-1α as ligand, THP-1 cell membranes; read-out: IC50
Procedure: Membranes were prepared from THP-1 cells (ATCC #TIB202). Cells were harvested by centrifugation, washed twice with PBS (phosphate-buffered saline), and the cell pellets were frozen at −70 to −85° C. The frozen pellet was thawed in ice-cold lysis buffer consisting of 5 mM HEPES (N-2-hydroxyethylpiperazine-N′-2-ethane-sulfonic acid) pH 7.5, 2 mM EDTA (ethylenediaminetetraacetic acid), 5 μg/ml each aprotinin, leupeptin, and chymostatin (protease inhibitors), and 100 μg/ml PMSF (phenyl methane sulfonyl fluoride—also a protease inhibitor), at a concentration of 1 to 5×10^7 cells/ml. This procedure results in cell lysis. The suspension was mixed well to resuspend all of the frozen cell pellet. Nuclei and cell debris were removed by centrifugation of 400×g for 10 minutes at 4° C. The supernatant was transferred to a fresh tube and the membrane fragments were collected by centrifugation at 25,000×g for 30 minutes at 4° C. The supernatant was aspirated and the pellet was resuspended in freezing buffer consisting of 10 mM HEPES pH 7.5, 300 mM sucrose, 1 μg/ml each aprotinin, leupeptin, and chymostatin, and 10 μg/ml PMSF (approximately 0.1 ml per each 10^8 cells). All clumps were resolved using a minihomogenizer, and the total protein concentration was determined using a protein assay kit (Bio-Rad, Hercules, Calif., cat #500-0002). The membrane solution was then aliquoted and frozen at −70 to −85° C. until needed.
Binding Assays utilized the membranes described above. […] The binding reactions were performed in 60 to 100 μl of a binding buffer consisting of 10 mM HEPES pH 7.2, 1 mM CaCl2, 5 mM MgCl2, and 0.5% BSA (bovine serum albumin), for 60 min at room temperature. The binding reactions were terminated by harvesting the membranes by rapid filtration through glass fiber filters (GF/B or GF/C, Packard) which were presoaked in 0.3% polyethyleneimine. The filters were rinsed with approximately 600 μl of binding buffer containing 0.5 M NaCl, dried, and the amount of bound radioactivity was determined by scintillation counting in a Topcount beta-plate counter.
Specific binding is defined as the total binding minus the non-specific binding; non-specific binding is the amount of cpm still detected in the presence of excess unlabeled Rantes or MIP-1α.

| Substance | IC50 [µM] |
| --- | --- |
| 1-(2-Chlorophenylsulfonyl)-4-[3-(5,11-Dihydro-7-methoxy[1]benzoxepino[2,3-b]pyridin-5-ylidene)propyl]piperazine [Example 190] | > 10 |
| 1-(3-Chlorophenylsulfonyl)-4-[3-(5,11-Dihydro-7-methoxy[1]benzoxepino[2,3-b]pyridin-5-ylidene)propyl]piperazine [Example 191] | > 10 |
| 1-(4-Chlorophenyl)-4-[3-(5,11-dihydro-7-methoxy[1]benzoxepino[2,3-b]pyridin-5-ylidene)propyl]piperazine [Example 71] | < 1 |
| 1-(4-Chlorophenylsulfonyl)-4-[3-(5,11-Dihydro-7-methoxy[1]benzoxepino[2,3-b]pyridin-5-ylidene)propyl]piperazine [Example 192] | > 10 |
| 1-Cyclohexyl-4-[3-(5,11-dihydro-7-methoxy[1]benzoxepino[2,3-b]pyridin-5-ylidene)propyl]piperazine [Example 73] | < 10 |
| 1-[3-(5,11-Dihydro-7-methoxy[1]benzoxepino[2,3-b]pyridin-5-ylidene)propyl]-4-(2-furoyl)piperazine [Example 74] | < 1000 |
| 1-[3-(5,11-Dihydro-7-methoxy[1]benzoxepino[2,3-b]pyridin-5-ylidene)propyl]-4-(2-hydroxyphenyl)piperidine [Example 184] | < 10 |
| 1-[3-(5,11-Dihydro-7-methoxy[1]benzoxepino[2,3-b]pyridin-5-ylidene)propyl]-4-(2-pyridyl)piperidin-4-ol [Example 147] | < 10 |
| 1-[3-(5,11-Dihydro-7-methoxy[1]benzoxepino[2,3-b]pyridin-5-ylidene)propyl]-4-(2-pyrimidyl)piperazine [Example 72] | < 10 |
| 1-[3-(5,11-Dihydro-7-methoxy[1]benzoxepino[2,3-b]pyridin-5-ylidene)propyl]-4-(3-pyridyl)piperidin-4-ol [Example 148] | < 10 |
| 1-[3-(5,11-Dihydro-7-methoxy[1]benzoxepino[2,3-b]pyridin-5-ylidene)propyl]-4-(4-fluoro-3-methylphenyl)piperidin-4-ol [Example 143] | < 1 |
| 1-[3-(5,11-Dihydro-7-methoxy[1]benzoxepino[2,3-b]pyridin-5-ylidene)propyl]-4-(4-fluorophenyl)piperidin-4-ol [Example 77] | < 1 |
| 1-[3-(5,11-Dihydro-7-methoxy[1]benzoxepino[2,3-b]pyridin-5-ylidene)propyl]-4-(4-hydroxyphenyl)piperidin-4-ol [Example 142] | < 10 |
| 1-[3-(5,11-Dihydro-7-methoxy[1]benzoxepino[2,3-b]pyridin-5-ylidene)propyl]-4-(4-hydroxyphenyl)piperidine [Example 183] | < 1 |
| 1-[3-(5,11-Dihydro-7-methoxy[1]benzoxepino[2,3-b]pyridin-5-ylidene)propyl]-4-(4-methoxyphenyl)piperidin-4-ol [Example 140] | > 10 |
| 1-[3-(5,11-Dihydro-7-methoxy[1]benzoxepino[2,3-b]pyridin-5-ylidene)propyl]-4-(4-pyridyl)piperidin-4-ol [Example 149] | < 1000 |
| 1-[3-(5,11-Dihydro-7-methoxy[1]benzoxepino[2,3-b]pyridin-5-ylidene)propyl]-4-(4-trifluoromethylphenyl)piperidin-4-ol [Example 150] | < 10 |
| 1-[3-(5,11-Dihydro-7-methoxy[1]benzoxepino[2,3-b]pyridin-5-ylidene)propyl]-4-phenylpiperidine [Example 64] | < 1 |
| 1-[3-(5,11-Dihydro-7-methoxy[1]benzoxepino[2,3-b]pyridin-5-ylidene)propyl]-4-piperidinopiperidine [Example 66] | < 1000 |

| Substance | IC50 [µM] |
| --- | --- |
| 1-[3-(5,11-Dihydro-7-methoxy[1]benzoxepino[2,3-b]pyridin-5-ylidene)propyl]piperidin-4-ol [Example 61] | < 10 |
| 1-[3-(7-(1-Carboxy-1-methylethyl)oxy-5,11-dihydro [1]benzoxepino[2,3-b]pyridin-5-ylidene)propyl]-4-(4-chlorophenyl)piperidin-4-ol [Example 139] | < 1 |
| 1-[3-(7-(1-Carboxy-1-methylethyl)oxy-5,11-dihydro[1]benzoxepino[2,3-b]pyridin-5-ylidene)propyl]-4-(4-chlorophenyl)piperidine [Example 159] | < 1 |
| 1-[3-(7-(1-Carboxyethyl)oxy-5,11-dihydro[1]benzoxepino[2,3-b]pyridin-5-ylidene)propyl]-4-(4-chlorophenyl)piperidin-4-ol [Example 178] | < 1 |
| 1-[3-(7-(2-Carbamoyl)ethyl-5,11-dihydro[1]benzoxepino[2,3-b]pyridin-5-ylidene)propyl]-4-(4-chlorophenyl)-piperidin-4-ol [Example 218] | < 1 |
| 1-[3-(7-(2-Carboxy)ethenyl-5,11-dihydro[1]benzoxepino[2,3-b]pyridin-5-ylidene)propyl]-4-(4-chlorophenyl)piperidin-4-ol [Example 172] | < 1 |
| 1-[3-(7-(2-Carboxy)ethyl-5,11-dihydro[1]benzoxepino[2,3-b]pyridin-5-ylidene)propyl]-4-(4-chlorophenyl)-piperidin-4-ol [Example 123] | < 1 |
| 1-[3-(7-Bromo-5,11-dihydro[1]benzoxepino[2,3-b]pyridin-5-ylidene)propyl]-4-(4-chlorophenyl)piperidin-4-ol [Example 162] | < 1 |
| 1-[3-(7-Carbamoyl-5,11-dihydro[1]benzoxepino[2,3-b]pyridin-5-ylidene)propyl]-4-(4-chlorophenyl)piperidin-4-ol [Example 269] | < 1 |
| 1-[3-(7-Carbamoylmethyl-5,11-dihydro[1]benzoxepino[2,3-b]pyridin-5-ylidene)propyl]-4-(4-chlorophenyl)-piperidin-4-ol [Example 281] | < 1 |
| 1-[3-(7-Carbamoylmethyloxy-5,11-dihydro[1]benzoxepino[2,3-b]pyridin-5-ylidene)propyl]-4-(4-chlorophenyl)piperidin-4-ol [Example 181] | < 1 |
| 1-[3-(7-Carboxy-5,11-dihydro[1]benzoxepino[2,3-b]pyridin-5-ylidene)propyl]-4-(4-chlorophenyl)piperidin-4-ol [Example 118] | < 1 |
| 1-[3-(7-Carboxymethyloxy-5,11-dihydro[1]benzoxepino[2,3-b]pyridin-5-ylidene)propyl]-4-(4-chlorophenyl)piperidin-4-ol [Example 133] | < 1 |
| 1-[3-(7-Chloro-5,11-dihydro[1]benzoxepino[2,3-b]pyridin-5-ylidene)propyl]-4-(4-chlorophenyl)piperidin-4-ol [Example 117] | < 1 |
| 1-[3-(8-Bromo-5,11-dihydro[1]benzoxepino[2,3-b]pyridin-5-ylidene)propyl]-4-(4-chlorophenyl)piperidin-4-ol [Example 54] | < 1 |
| 1-[3-(8-Bromo-5,11-dihydro[1]benzoxepino[2,3-b]pyridin-5-ylidene)propyl]-4-(4-chlorophenyl)piperidine [Example 160] | < 1 |
| 1-[3-(8-Carboxy-5,11-dihydro[1]benzoxepino[2,3-b]pyridin-5-ylidene)propyl]-4-(4-chlorophenyl)piperidine [Example 161] | < 10 |
| 1-{3-[7-(1-Hydroxy-1-methyl-ethyl)-11H-10-oxa-1-aza-dibenzo[a,d]cyclohepten-5-ylidene]-propyl}-4-phenyl-piperidin-4-ol [Example 488] | < 1 |
| 1′-[3-(5,11-Dihydro-7-methoxy[1]benzoxepino[2,3-b]pyridin-5-ylidene)propyl]spiro[isobenzofuran-1(3H), 4′-piperidine] [Example 90] | < 1 |
